Some test systems named below: A549 NSCLC; OVCAR-3 ovarian; SN12C renal; NCI-H226 lung; CCRF-CEM leukemia; HOP-62 NSCLC; SNB-19 CNS; A498 renal; M14 melanoma; K-562 leukemia.
Assay in all cases: NCI-60 cell line screen, 48 h

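Following 48 hours of exposure in 96-well plates, responses at five concentrations were used to interpolate endpoints linearly. Abbreviation: GI50, concentration required for 50% inhibition of growth. Definition used: TGI = concentration required for complete inhibition of growth.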 A value given as a limit tells only on which side of the number the result lay.

In the case of `CNCCCn1c2c(c3ccc(F)cc3c1=O)C(=O)c1cc(OC)cnc1-2`, the GI50 is 0.105 µM in the assay with A549 NSCLC; 0.263 µM with OVCAR-3 ovarian; 0.211 µM in the assay on SN12C renal; 0.163 µM in the assay on NCI-H226 lung; 0.255 µM in the assay with CCRF-CEM leukemia; 0.142 µM with HOP-62 NSCLC. In addition, the GI50 in the assay on SNB-19 CNS is 0.216 µM; with A498 renal, 0.369 µM; in the assay with M14 melanoma, 0.308 µM; in the assay on K-562 leukemia, 0.172 µM. Besides, the TGI is 0.288 µM with A549 NSCLC; 1.39 µM in the assay on OVCAR-3 ovarian; 1.34 µM with SN12C renal; 0.356 µM in the assay with NCI-H226 lung; 10.6 µM in the assay with CCRF-CEM leukemia; 0.42 µM in the assay on HOP-62 NSCLC. For the same molecule, the TGI with SNB-19 CNS turned out to be 1.78 µM; with A498 renal, 1.61 µM; with M14 melanoma, 1.63 µM; in the assay on K-562 leukemia, 1.92 µM.

Regarding `Nc1cc2nc3ccccc3oc-2cc1=O`, the GI50 in the assay with A549 NSCLC is 1.66 µM; in the assay on OVCAR-3 ovarian, 3.54 µM; in the assay with SN12C renal, 1.46 µM; with NCI-H226 lung, 2.57 µM; in the assay with CCRF-CEM leukemia, 13.4 µM; in the assay with HOP-62 NSCLC, 2.94 µM. Further, the GI50 was 5.44 µM in the assay with SNB-19 CNS, 5.44 µM in the assay on A498 renal, 1.61 µM in the assay on M14 melanoma and 2.05 µM in the assay on K-562 leukemia. The TGI was 3.84 µM in the assay with A549 NSCLC; 29.3 µM in the assay on OVCAR-3 ovarian; 2.9 µM in the assay with SN12C renal; 9.2 µM in the assay with NCI-H226 lung; greater than 64.9 µM in the assay with CCRF-CEM leukemia; 6.64 µM in the assay on HOP-62 NSCLC. Moreover, the TGI with SNB-19 CNS is 16 µM; in the assay with A498 renal, 11.1 µM; with M14 melanoma, 3.01 µM; with K-562 leukemia, greater than 26.9 µM.

With `C[C@]12CC[C@@H]3c4ccc(O)cc4CC[C@H]3[C@@H]1CC[C@@H]2NS(=O)(=O)c1ccc2ccccc2c1`, the GI50 in the assay on A549 NSCLC was 3.24 µM; in the assay on OVCAR-3 ovarian, 2.63 µM; in the assay with SN12C renal it was 1.94 µM; with NCI-H226 lung it was 2.98 µM; in the assay with CCRF-CEM leukemia, 2.94 µM; in the assay with HOP-62 NSCLC, 5.87 µM. Also, the GI50 was 4.17 µM with SNB-19 CNS, 1.72 µM in the assay with A498 renal, 3.2 µM in the assay with M14 melanoma and 3.42 µM in the assay with K-562 leukemia. Further, the TGI in the assay with A549 NSCLC was 13.2 µM; in the assay on OVCAR-3 ovarian, 7.3 µM; in the assay on SN12C renal, 4.25 µM; in the assay with NCI-H226 lung, 11.5 µM; in the assay on CCRF-CEM leukemia, greater than 100 µM; with HOP-62 NSCLC, 20.2 µM. Further, the TGI with SNB-19 CNS was greater than 100 µM; with A498 renal it was 4.01 µM; with M14 melanoma, 10.5 µM; with K-562 leukemia it was greater than 100 µM.

Turning to `CCOC(=O)c1nc2cc(C(F)(F)F)ccc2[n+]([O-])c1C`, the GI50 in the assay on A549 NSCLC is greater than 100 µM; in the assay with OVCAR-3 ovarian it was greater than 100 µM; with SN12C renal, greater than 100 µM; with NCI-H226 lung it was greater than 100 µM; in the assay with CCRF-CEM leukemia, 0.159 µM; with HOP-62 NSCLC, greater than 100 µM. The GI50 in the assay on SNB-19 CNS, in the assay with A498 renal, in the assay on M14 melanoma and with K-562 leukemia was greater than 100 µM in each case. For the same molecule, the TGI is greater than 100 µM in the assay on A549 NSCLC; greater than 100 µM in the assay on OVCAR-3 ovarian; greater than 100 µM with SN12C renal; greater than 100 µM in the assay with NCI-H226 lung; 0.533 µM in the assay with CCRF-CEM leukemia; greater than 100 µM with HOP-62 NSCLC. Besides, the TGI with SNB-19 CNS, in the assay on A498 renal, in the assay on M14 melanoma and in the assay with K-562 leukemia was greater than 100 µM each time.

Regarding `O=Nc1c(O)c2ccccc2c2ccccc12`, the GI50 with A549 NSCLC was 1.63 µM; in the assay on OVCAR-3 ovarian, 0.754 µM; in the assay with SN12C renal it was 0.449 µM; in the assay with NCI-H226 lung it was 2.03 µM; in the assay on CCRF-CEM leukemia, 1.25 µM; in the assay on HOP-62 NSCLC, 0.768 µM. Further, the GI50 is 1.13 µM with SNB-19 CNS, 1.6 µM in the assay with A498 renal, 0.446 µM with M14 melanoma and 0.505 µM in the assay with K-562 leukemia. Besides, the TGI was 3.13 µM in the assay with A549 NSCLC; 2.45 µM with OVCAR-3 ovarian; 1.88 µM in the assay with SN12C renal; 3.83 µM in the assay on NCI-H226 lung; greater than 100 µM with CCRF-CEM leukemia; 2.41 µM with HOP-62 NSCLC. The TGI is 2.55 µM with SNB-19 CNS, 3.07 µM in the assay with A498 renal, 1.6 µM in the assay with M14 melanoma and greater than 100 µM in the assay on K-562 leukemia.

As for `CN(C)CCOc1ccc(-c2cc(-c3ccc4c(c3)CC/C4=N\O)c(-c3ccncc3)o2)cc1`, the GI50 with A549 NSCLC is 3.57 µM; with OVCAR-3 ovarian it was 4.38 µM; in the assay on SN12C renal, 3.96 µM; with NCI-H226 lung, 4.78 µM; in the assay on CCRF-CEM leukemia it was 3.76 µM; in the assay on HOP-62 NSCLC, 3.84 µM. Moreover, the GI50 is 4.68 µM in the assay with SNB-19 CNS, 4.22 µM in the assay with A498 renal, 0.0653 µM in the assay with M14 melanoma and 0.668 µM with K-562 leukemia. Besides, the TGI in the assay on A549 NSCLC worked out at 7.06 µM; in the assay with OVCAR-3 ovarian it was 8.16 µM; in the assay on SN12C renal it was 7.73 µM; in the assay with NCI-H226 lung, 9.7 µM; in the assay on CCRF-CEM leukemia it was 13.3 µM; in the assay on HOP-62 NSCLC it was 7.92 µM. For the same molecule, the TGI was found to be 8.6 µM in the assay with SNB-19 CNS, 8.17 µM with A498 renal, 3.39 µM in the assay on M14 melanoma and 3.27 µM with K-562 leukemia.

Consider `NCCN1C(=O)c2ccccc2C1(O)c1ccc(Cl)cc1` (stereo not given), for which the TGI is 67.3 µM in the assay on A549 NSCLC; greater than 100 µM with OVCAR-3 ovarian; greater than 100 µM with SN12C renal; greater than 100 µM in the assay with NCI-H226 lung; 57 µM with CCRF-CEM leukemia; 89.8 µM in the assay on HOP-62 NSCLC. Further, the TGI is 61 µM in the assay on SNB-19 CNS, 27.8 µM in the assay with A498 renal, 36 µM in the assay with M14 melanoma and 39 µM in the assay with K-562 leukemia.

For the molecule `Cc1cc2c(=O)[nH]c(N)nc2nc1C`, the TGI in the assay with A549 NSCLC, in the assay on OVCAR-3 ovarian, with SN12C renal, in the assay on NCI-H226 lung, in the assay with CCRF-CEM leukemia and in the assay on HOP-62 NSCLC was greater than 100 µM in each case. For the same molecule, the TGI with SNB-19 CNS, in the assay with A498 renal, in the assay with M14 melanoma and with K-562 leukemia was greater than 100 µM throughout.

(Values after PubChem BioAssay (NCI).)
